A word on the IC50: it is the point on the concentration scale where inhibition reaches its midpoint. High values mean lower potency, low ones higher potency.

Activity calls are given as the source filed them. The rule behind the calls is not given here.

The text below walks through data of ChEMBL document CHEMBL1156646, “Natural products chemistry and taxonomy of the marine cyanobacterium Blennothrix cantharidosmum” (J Nat Prod, 2008).

Test [1] concerns Plasmodium falciparum. The experiment in a line: Antimalarial activity against Plasmodium falciparum at 10 ug/ml. It is filed as functional, organism-based.
Test [2] relates to Vibrio harveyi. The test can be described thus: Inhibition of bioluminescence in wild type Vibrio harveyi BB120 by quorum sensing assay. It is filed as functional, organism-based, Vibrio harveyi ATCC BAA-1116.
Test [3] has as its system Plasmodium falciparum. The test can be described thus: Antimalarial activity against Plasmodium falciparum. The class given is functional, organism-based.

In the case of `CCCCCCCC[C@H](C)C(=O)N1CCC[C@H]1C(=O)O[C@@H](C(=O)O[C@H](C(=O)O)C(C)C)C(C)C`, in test [1], the result was inactive.

Consider `CCCCC(C)/C=C(\C)[C@H](O)[C@H](C)C(=O)N1CCC[C@H]1C(=O)O` (stereo partly drawn), for which, in test [1], the outcome was inactive.

For `CCCCCCCCC(C)[C@H](OC(C)=O)[C@H](C)C(=O)N1CCC[C@H]1C(=O)O` (stereo partly drawn) [TUMONOIC ACID F], in test [2], the IC50 was 62 µM. Moreover, the result in test [1] was inactive.

As to `CCCCCCC/C=C(\C)[C@@H](O)[C@@H](C)C(=O)N1CCC[C@H]1C(=O)O`, the outcome in test [1] was inactive.

For the compound `CCCCCCCC[C@H](C)C(=O)N1CCC[C@H]1C(=O)O`, the result in test [1] was inactive.

As for `CCCCCCCC[C@H](C)C(=O)N1CCC[C@H]1C(=O)O[C@@H](C(=O)O[C@@H](C)C(=O)O)[C@@H](C)CC`, the result in test [1] was inactive.

On to `CCCC[C@H](C)C[C@H](C)C(=O)N1CCC[C@H]1C(=O)O[C@@H](C(=O)O[C@H](C(=O)O)[C@@H](C)CC)[C@@H](C)CC` [TUMONOIC ACID I], for which the IC50 in test [3] turned out to be 2 µM.
